According to paper PMC11876601 (Molecular Systems Biology, 2025):

System: MiaPaCa-2
Assay: cells
Set-up: ATPlite luminescence viability of PDAC cell lines, 11-dose single-agent curves, 4-parameter fit
Conditions: Homo sapiens, MIA PaCa-2, 72 h, read-out: EC50 [nM]
Summary of the method: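 cells (1000 to 5000 per well) seeded 24 h before drug addition in a combination screen at 0.2% final DMSO. Controls were drug-free wells (negative) and 5 µM staurosporine (positive).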

| SMILES | EC50 [nM] |
| --- | --- |
| CCN1CCN(Cc2ccc(Nc3ncc(F)c(-c4cc(F)c5nc(C)n(C(C)C)c5c4)n3)nc2)CC1 [Abemaciclib] | 82.2 |
| COc1cc(N2CCC(N3CCN(C)CC3)CC2)ccc1Nc1ncc(Cl)c(Nc2ccccc2P(C)(C)=O)n1 [Brigatinib] | 177 |
